Source: patent publication US6020374A, “Biologically active synthetic dye compounds” (priority 1998, dated 2000)

Columns and labels:
Assay type in all cases: cell-based
[1] = tested on: MAPK-1 (44 kDa) and MAPK-2 (42 kDa); assay: Activation of MAPKs in MCF-7 cells (anti-active MAPK immunoblot); conditions: 5 mins., ATA, EB each at 300 μg/ml, IGF-1 20 or 40 ng/ml
Method: FIG. 7 is the effect of ATA and EB on activation of MAPKs: MCF-7 cells were treated for 5 mins. with ATA, EB, each at 300 μg/ml, 20 ng/ml or 40 ng/ml IGF-1. Cell lysates, solubilized in Buffer C, were subjected to 12% SDS-PAGE and immunoblotted with an anti-active MAPK antibody. The membrane, after ECL detection, was stripped of bound antibody and blotted with an anti-MAPK antibody.
(§1) Nitrocellulose blots of proteins were incubated with the antibodies, and proteins were detected by enhanced chemiluminescence using horseradish peroxidase-labeled protein A, horseradish peroxidase-labeled anti rabbit IgG or horseradish peroxidase-labeled anti-mouse IgG.
The activated forms of MAPKs were detected by anti-active MAPK immunoblotting in the MCF-7 cell's lysates. […] Blotting with anti MAPKs antibodies confirms that similar amounts of MAPKs were present in treated and non-treated cells.

IR = target: T1, IR (Rattus norvegicus, UniProt P15127); assay: Tyrosine phosphorylation of IR in FaO cells; conditions: 3 hour preincubation with vanadate, 5 min. incubations with EB and insulin
T1 construct: determined in the rat hepatoma cell line FaO; endogenous in cells; host or cells: FaO (rat hepatoma)
Method: FIG. 9 is the tyrosine phosphorylation of the IR cascade in Fao cells: A--Immunoblot analysis: Fao cells were deprived of serum for 20 hours, then incubated with EB, ATA, at 200 μg/ml or insulin at 600 ng/ml for 5 mins. Cell extracts were subjected to immunoprecipitation with antibodies to: IR β-subunit (αIR), IRS-1 (αIRS-1) and to IRS-2 (αIRS-2). The immunoprecipitates and total cell extracts were analyzed by SDS-PAGE. Proteins were transferred to nitrocellulose papers, and phosphotyrosine containing proteins were probed with anti-phosphotyrosine antibodies (αP-Tyr), antibody to the 85-kDa subunit of PI3-kinase (αp85) and antibodies to active MAPK (α active MAPK). The immunoblots were visualized by ECL (Amersham).
B--Kinetics of IR phosphorylation: Cells were treated either with 200 μg/ml EB for the indicated times (top panel) or with the indicated concentrations of EB for 5 mins. (middle panel). A 3 hour preincubation with vanadate preceded the 5 min. incubations with EB and insulin (bottom panel).
(§2) MCF-7 cells were grown in 35 or 100 mm dishes in DMEM with 5% bovine fetal serum. Rat hepato FaO cells were grown in RPMI 1640 medium supplemented with 10% fetal calf serum. Subconfluent monolayers of MCF-7 cells or FaO cells, were deprived of serum for 20 hours prior to each experiment. The medium was removed, and cells were incubated at 37° C. under the conditions as indicated for each experiment. The reaction was terminated by removing the medium and freezing the monolayers with liquid nitrogen. In some experiments, cells were preincubated with 50 μM sodium orthovanadate for 3 hours.
(§3) Cells were solubilized in Buffer A or C. Extracts were immunoprecipitated at 4° C. with antibodies to IRS-1, IRS-2, IGF-1 or IR receptor or Grb2, adsorbed on protein A-Sepharose beads. The immunocomplexes were pelleted by centrifugation at 12,000×g and washed twice with Buffer A, and twice with Buffer A containing 0.1% Triton x-100. The pellets were then suspended in Laemmli sample buffer and resolved on 7.5% SDS-PAGE.
as §1
The ability of EB and ATA to phosphorylate the IR was determined in the rat hepatoma cell line FaO. […] Phosphorylation is maximal after a 1 min. exposure to 70 μg/ml of EB (FIG. 9B, top and middle panels).

[2] = tested on: 185 kDa protein(s) (p185); assay: Tyrosine phosphorylation of p185 in MCF-7 cells (anti-phosphotyrosine immunoblot)
Method: FIG. 1 is the effect of ATA and EB on tyrosine phosphorylation: MCF-7 cells, grown in 35 mm dishes were solubilized in Buffer A (a) or Buffer B (b-c). The solubilized cells were subjected to 7.5% SDS-PAGE and immunoblotted with an anti-phosphotyrosine antibody. (a) Cells treated for 5 mins. with ATA, EB, each at 300 μg/ml, IGF-1 at 20 ng/ml, or without additives (CON); (b) Cells treated with 300 μg/ml ATA for the indicated times; (c) Cells treated with 30 μg/ml EB for the indicated times; (d) Cells treated for 5 mins. with the indicated concentrations of ATA; (e) Cells treated for 5 mins. with the indicated concentrations of EB. Molecular mass markers (in kDa) are indicated on the right.
FIG. 2 is the effect of ATA and vanadate on the IGF-1 stimulated tyrosine phosphorylation of p185: A--Cells treated for 5 mins. with the indicated concentrations of IGF-1 in the presence or absence of 300 μg/ml ATA; B--Cells pre-incubated for 3 hours with or without 50 μM vanadate were incubated for 5 mins. with ATA, EB each at 300 μg/ml or with 10 ng/ml IGF-1 in the presence or absence of vanadate. Cytosols extracted in Buffer B were analyzed by immunoblotting with anti-phosphotyrosine antibody as in FIG. 1.
FIG. 8 is the effect of fractionated ATA on p185 phosphorylation: A--Crude ATA was separated on a Bio-Rad P-4 column and the combined void volume was then gel filtrated on a column of Bio-Rad P-10. The column was calibrated with the following molecular weight markers: DB-Dextran blue; CC-cytochrome C: Ins-insulin; B12-Vitamin B12. B--MCF-7 cells were incubated for 5 mins. with the indicated fractions of ATA (eluted from the P-10 column shown in A), crude ATA, each at 200 μg/ml or IGF-1 at 20 ng/ml. Cytosols, solubilized in Buffer B were subjected to 7.5% SDS-PAGE and immunoblotted with phosphotyrosine antibody.
as §2
Cells were solubilized at 4° C. with 0.2 ml/35 mm dish or 2 ml/100 mm dish of the indicated buffer. The solubilized cells were scraped and sedimented by centrifugation at 12,000×g for 30 mins. at 4° C. Aliquots of the supernatants were normalized for protein, mixed with concentrated (5×) Laemmli sample buffer, boiled for 10 mins. and resolved on 7.5 or 12% SDS-PAGE under reducing conditions.
as §1

IRS-2 = IRS-2 association with p85 of PI3-kinase in MCF-7 cells; conditions: 5 mins., ATA or EB 300 μg/ml, IGF-1 20 ng/ml
Method: FIG. 4 is the effect of ATA and EB on tyrosine phosphorylation of IRS-2: MCF-7 cells were treated as in FIG. 3. Total cell extracts, solubilized in Buffer C, were immunoprecipitated with an antibody to IRS-2. The immunocomplexes, precipitated with protein A-Sepharose beads were subjected to 7.5% SDS-PAGE, followed by immunoblotting with a phosphotyrosine antibody and an antibody to the 85-kDA subunit of PI3-kinase.
as §3, §1
(§4) MCF-7 cells were stimulated with ATA, EB or IGF-1, solubilized and immunoprecipitated with anti IRS-1 or IRS-2 antibodies, separated by SDS-PAGE and immunoblotted with anti-phosphotyrosine antibody. […] The association of IRS-1 with Grb-2 was evaluated in lysates from treated cells which were immunoblotted with antibodies to either phosphotyrosine or IRS-1.

IRS-1 = IRS-1 tyrosine phosphorylation and association with p85/Grb2 in MCF-7 cells; conditions: 5 mins., ATA or EB 300 μg/ml, IGF-1 20 ng/ml
Method: FIG. 3 is the effect of ATA and EB on tyrosine phosphorylation or IRS-1: MCF-7 cells grown in 100 mm dishes, were treated with ATA or EB, each at 300 μg/ml, or 20 ng/ml IGF-1 for 5 mins. Total cell extracts, solubilized in Buffer A, were subjected to immunoprecipitation with antibodies to IRS-1 (a) or Grb2 (b). The immunocomplexes, precipitated with protein G-Sepharose beads, were subjected to 7.5% SDS-PAGE followed by immunoblotting with a phosphotyrosine antibody, an antibody to the 85-kDa subunit of PI3-kinase or antibody to IRS-1.
as §3, §1, §4

MCF-7 cells = assay: Cell death estimation, cycloheximide-exposed MCF-7 cells (trypan blue); conditions: for Percent dead cells: 48 hours
Method: Subconfluent cultures of MCF-7 cells in 35 mm dishes, were deprived of serum for 20 hours and then exposed to 30 μg/ml cycloheximide in the presence or absence of increasing concentrations of fractionated ATA, crude ATA or EB. After 48 hours, the cells were detached with trypsin. The medium and the detached cells were pooled and centrifuged at 1000×g for 10 mins. Cell viability was estimated by adding an equivalent volume of trypan blue solution to an aliquot of suspended cells. Stained and unstained cells were counted on a hemocytometer (10^3 cells were counted for each determination).
Subconfluent, 20 hours starved MCF-7 cells were exposed to 30 μg/ml
of cycloheximide in the presence of increasing
concentrations of fractionated ATA (0, 6, 12, 25, 50 μg/ml). After
48 hours, percent of dead cells was
determined as described under "Experimental procedures". In the
presence of cycloheximide only, 60-70% of
the cells were dead after 48 hours.
Cultures of […] cells were exposed to 30 μg CX for 48 hours in the presence of EB, ATA, IGF-1, or nothing.

T1 sequence (P15127 764-1383 limits assumed): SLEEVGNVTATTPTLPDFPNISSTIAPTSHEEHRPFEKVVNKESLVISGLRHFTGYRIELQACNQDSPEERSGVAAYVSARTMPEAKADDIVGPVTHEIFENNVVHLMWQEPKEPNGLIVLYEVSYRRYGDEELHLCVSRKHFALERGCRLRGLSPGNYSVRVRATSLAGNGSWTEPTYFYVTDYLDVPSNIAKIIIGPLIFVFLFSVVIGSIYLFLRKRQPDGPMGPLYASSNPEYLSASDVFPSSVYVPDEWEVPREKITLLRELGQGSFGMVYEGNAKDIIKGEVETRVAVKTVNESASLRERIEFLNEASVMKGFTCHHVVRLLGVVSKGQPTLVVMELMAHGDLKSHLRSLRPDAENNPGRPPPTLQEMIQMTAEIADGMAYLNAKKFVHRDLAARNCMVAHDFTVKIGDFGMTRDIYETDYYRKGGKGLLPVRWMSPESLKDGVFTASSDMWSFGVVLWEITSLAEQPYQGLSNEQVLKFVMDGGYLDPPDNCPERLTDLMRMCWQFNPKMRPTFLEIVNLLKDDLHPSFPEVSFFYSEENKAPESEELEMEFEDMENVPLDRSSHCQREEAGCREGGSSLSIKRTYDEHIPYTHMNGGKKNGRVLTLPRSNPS
T1 sequence (P15127 27-759 limits assumed): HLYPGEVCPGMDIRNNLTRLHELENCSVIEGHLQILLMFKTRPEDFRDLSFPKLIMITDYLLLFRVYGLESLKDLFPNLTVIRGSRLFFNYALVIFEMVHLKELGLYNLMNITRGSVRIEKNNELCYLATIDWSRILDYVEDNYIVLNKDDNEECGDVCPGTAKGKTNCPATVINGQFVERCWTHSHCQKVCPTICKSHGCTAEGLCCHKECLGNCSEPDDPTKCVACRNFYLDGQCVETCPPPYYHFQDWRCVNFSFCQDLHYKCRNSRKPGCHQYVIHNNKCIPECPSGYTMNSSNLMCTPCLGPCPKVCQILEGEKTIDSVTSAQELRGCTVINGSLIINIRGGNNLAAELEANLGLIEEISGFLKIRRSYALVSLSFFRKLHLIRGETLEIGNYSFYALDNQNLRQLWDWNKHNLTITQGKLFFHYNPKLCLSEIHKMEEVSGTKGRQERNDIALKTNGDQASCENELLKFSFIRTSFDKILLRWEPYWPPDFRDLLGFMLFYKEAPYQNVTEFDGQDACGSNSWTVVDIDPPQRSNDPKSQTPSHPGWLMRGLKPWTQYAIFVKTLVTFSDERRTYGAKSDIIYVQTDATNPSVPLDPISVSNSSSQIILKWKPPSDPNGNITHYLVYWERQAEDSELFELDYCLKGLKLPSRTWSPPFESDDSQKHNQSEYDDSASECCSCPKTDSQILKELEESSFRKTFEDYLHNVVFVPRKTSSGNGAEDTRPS

CCCCCCCCCCCCCC(=O)O[C@@H]1[C@@H](C)[C@@]2(O)[C@@H](C=C(CO)C[C@]3(O)C(=O)C(C)=C[C@@H]23)[C@@H]2C(C)(C)[C@]12OC(C)=O [TPA, reference compound]
Phosphorylated (active) isoforms MAPK-1 and MAPK-2 [1]: clearly detected

[Na+].[Na+].[Na+].[O]=[V]([O-])([O-])[O-] [Vanadate, sodium orthovanadate, reference compound]
Effect on IR phosphorylation induced by insulin (IR): enhances | Effect on phosphorylation of p185 induced by IGF-1, ATA and EB ([2]; MCF-7 cells pre-incubated 3 hours with 50 μM vanadate): markedly enhanced

IGF-1: Recombinant human IGF-1 from Boehringer Mannheim
Association of p85 subunit of PI3-k with IRS-2 (IRS-2): p85 precipitates | Tyrosine phosphorylation of a 185 kDa protein(s) ([2]; MCF-7 cells, 5 mins., ATA, EB each at 300 μg/ml, IGF-1 at 20 ng/ml): enhanced tyrosine phosphorylation of a 185 kDa protein(s) | pp185 (arbitrary units) ([2]; MCF-7 cells, 5 mins., IGF-1 at 20 ng/ml, scanned autoradiogram from FIG. 8B, Control 100): 1,751 arbitrary units | Association of IRS-1 with Grb-2 (IRS-1): IRS-1 co-precipitated with Grb2 | Association of p85 subunit of PI3-k with IRS-1 (IRS-1): p85 precipitates with IRS-1 | Phosphorylation of IRS-1 (IRS-1): stimulated the phosphorylation of IRS-1 | Percent dead cells (MCF-7 cells; 30 μg CX, IGF-1 20 μg/ml): 15 ± 4% | Phosphorylated (active) isoforms MAPK-1 and MAPK-2 [1]: clearly detected

C[C@@H]1C[C@@H]([C@H](O)CC2CC(=O)NC(=O)C2)C(=O)[C@@H](C)C1 [CX, cycloheximide, reference compound]
Percent dead cells (MCF-7 cells; CX only, 30 μg, Control without CX 10 ± 3): 56 ± 5% | cytotoxicity at 30 µg/mL (MCF-7 cells; Homo sapiens, MCF7, 48 h, read-out: cells dead after 48 hours): 60 to 70%
